Measured values taken from PubChem BioAssay AID2060882 (Molecular Pharmacology Branch, DTP, NCI, 2025).

System: 898857-211-R-J1-PDC complex spheroids, growth % test/control
Assay: Anticancer human tumor 898857-211-R-J1-PDC patient-derived melanoma cell line growth inhibition [RAS]
Conditions: for IC50: curve of first compound; for viability, T/C: stronger effect = lower value
How it was run: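 Tumour cells grown as complex spheroids with HUVEC endothelial cells and mesenchymal stem cells, treated with RAS pathway inhibitor combinations. Each agent spans half-log steps from near clinical Cmax, or 10 microM where Cmax is unknown.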

[1] = second compound 0.00316 µM, first compound 0.0316 µM
[2] = second compound 0.00316 µM, first compound 0.1 µM
[3] = second compound 0.00316 µM, first compound 0.316 µM
[4] = second compound 0.00316 µM, first compound 1 µM
[5] = second compound 0.00316 µM, first compound 3.16 µM
[6] = second compound 0.00316 µM, first compound 10 µM
[7] = second compound 0.01 µM, first compound 0.0316 µM
[8] = second compound 0.01 µM, first compound 0.1 µM
[9] = second compound 0.01 µM, first compound 0.316 µM
[10] = second compound 0.01 µM, first compound 1 µM
[11] = second compound 0.01 µM, first compound 3.16 µM
[12] = second compound 0.01 µM, first compound 10 µM
[13] = second compound 0.0316 µM, first compound 0.0316 µM
[14] = second compound 0.0316 µM, first compound 0.1 µM
[15] = second compound 0.0316 µM, first compound 0.316 µM
[16] = second compound 0.0316 µM, first compound 1 µM
[17] = second compound 0.0316 µM, first compound 3.16 µM
[18] = second compound 0.0316 µM, first compound 10 µM
[19] = second compound 0.1 µM, first compound 0.0316 µM
[20] = second compound 0.1 µM, first compound 0.1 µM
[21] = second compound 0.1 µM, first compound 0.316 µM
[22] = second compound 0.1 µM, first compound 1 µM
[23] = second compound 0.1 µM, first compound 3.16 µM
[24] = second compound 0.1 µM, first compound 10 µM
[25] = second compound 0.316 µM, first compound 0.0316 µM
[26] = second compound 0.316 µM, first compound 0.1 µM
[27] = second compound 0.316 µM, first compound 0.316 µM
[28] = second compound 0.316 µM, first compound 1 µM
[29] = second compound 0.316 µM, first compound 3.16 µM
[30] = second compound 0.316 µM, first compound 10 µM
[31] = second compound 1 µM, first compound 0.0316 µM
[32] = second compound 1 µM, first compound 0.1 µM
[33] = second compound 1 µM, first compound 0.316 µM
[34] = second compound 1 µM, first compound 1 µM
[35] = second compound 1 µM, first compound 3.16 µM
[36] = second compound 1 µM, first compound 10 µM
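Further: spheroids exposed to compound for seven days before readout.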
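Wherever viability, T/C is given: 100% = DMSO vehicle control wells.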

CC(C)NCC(C(=O)N1CCN(c2ncnc3c2C(C)CC3O)CC1)c1ccc(Cl)cc1 (stereo unspecified) + C=CC(=O)N1CCN(c2nc(OCC3CCCN3C)nc3c(F)c(-c4nc(N)cc(C)c4C(F)(F)F)c(Cl)cc23)C(C)C1
IC50 (second compound 0.00316 µM): > 10 µM
IC50 (second compound 0.01 µM): > 10 µM
IC50 (second compound 0.0316 µM): > 10 µM
IC50 (second compound 0.1 µM): > 10 µM
IC50 (second compound 0.316 µM): > 10 µM
IC50 (second compound 1 µM): > 10 µM
viability, T/C [1]: 108%
viability, T/C [2]: 99.8%
viability, T/C [3]: 97.5%
viability, T/C [4]: 89.2%
viability, T/C [5]: 81.2%
viability, T/C [6]: 70.1%
viability, T/C [7]: 101%
viability, T/C [8]: 104%
viability, T/C [9]: 104%
viability, T/C [10]: 85.8%
viability, T/C [11]: 85.9%
viability, T/C [12]: 70.7%
viability, T/C [13]: 111%
viability, T/C [14]: 101%
viability, T/C [15]: 114%
viability, T/C [16]: 103%
viability, T/C [17]: 78.9%
viability, T/C [18]: 60.8%
viability, T/C [19]: 118%
viability, T/C [20]: 110%
viability, T/C [21]: 102%
viability, T/C [22]: 88.8%
viability, T/C [23]: 91.8%
viability, T/C [24]: 66.7%
viability, T/C [25]: 114%
viability, T/C [26]: 129%
viability, T/C [27]: 126%
viability, T/C [28]: 112%
viability, T/C [29]: 93.3%
viability, T/C [30]: 71.4%
viability, T/C [31]: 116%
viability, T/C [32]: 121%
viability, T/C [33]: 117%
viability, T/C [34]: 112%
viability, T/C [35]: 97.5%
viability, T/C [36]: 70.4%

CC(C)n1nc(-c2ccc3oc(N)nc3c2)c2c(N)ncnc21 + C=CC(=O)N1CCN(c2nc(OCC3CCCN3C)nc3c(F)c(-c4nc(N)cc(C)c4C(F)(F)F)c(Cl)cc23)C(C)C1
IC50 (second compound 0.00316 µM): 0.0288 µM
IC50 (second compound 0.01 µM): 0.0336 µM
IC50 (second compound 0.0316 µM): 0.0269 µM
IC50 (second compound 0.1 µM): 0.035 µM
IC50 (second compound 0.316 µM): 0.0345 µM
IC50 (second compound 1 µM): 0.0379 µM
viability, T/C (second compound 0.00316 µM, first compound 0.000316 µM): 103%
viability, T/C (second compound 0.00316 µM, first compound 0.001 µM): 96.3%
viability, T/C (second compound 0.00316 µM, first compound 0.00316 µM): 99.6%
viability, T/C (second compound 0.00316 µM, first compound 0.01 µM): 75.9%
viability, T/C [1]: 48.5%
viability, T/C [2]: 19.9%
viability, T/C (second compound 0.01 µM, first compound 0.000316 µM): 107%
viability, T/C (second compound 0.01 µM, first compound 0.001 µM): 95.1%
viability, T/C (second compound 0.01 µM, first compound 0.00316 µM): 92.1%
viability, T/C (second compound 0.01 µM, first compound 0.01 µM): 77.9%
viability, T/C [7]: 49.9%
viability, T/C [8]: 21.3%
viability, T/C (second compound 0.0316 µM, first compound 0.000316 µM): 108%
viability, T/C (second compound 0.0316 µM, first compound 0.001 µM): 99.9%
viability, T/C (second compound 0.0316 µM, first compound 0.00316 µM): 91.7%
viability, T/C (second compound 0.0316 µM, first compound 0.01 µM): 77.5%
viability, T/C [13]: 44.2%
viability, T/C [14]: 20.4%
viability, T/C (second compound 0.1 µM, first compound 0.000316 µM): 104%
viability, T/C (second compound 0.1 µM, first compound 0.001 µM): 102%
viability, T/C (second compound 0.1 µM, first compound 0.00316 µM): 97.4%
viability, T/C (second compound 0.1 µM, first compound 0.01 µM): 85%
viability, T/C [19]: 52.7%
viability, T/C [20]: 19.8%
viability, T/C (second compound 0.316 µM, first compound 0.000316 µM): 116%
viability, T/C (second compound 0.316 µM, first compound 0.001 µM): 103%
viability, T/C (second compound 0.316 µM, first compound 0.00316 µM): 109%
viability, T/C (second compound 0.316 µM, first compound 0.01 µM): 89.3%
viability, T/C [25]: 52.4%
viability, T/C [26]: 20.8%
viability, T/C (second compound 1 µM, first compound 0.000316 µM): 122%
viability, T/C (second compound 1 µM, first compound 0.001 µM): 115%
viability, T/C (second compound 1 µM, first compound 0.00316 µM): 111%
viability, T/C (second compound 1 µM, first compound 0.01 µM): 84.5%
viability, T/C [31]: 56%
viability, T/C [32]: 22.7%

C[C@@H](NC(=O)c1ncnc(N)c1Cl)c1ncc(C(=O)Nc2cc(C(F)(F)F)c(Cl)cn2)s1 + C=CC(=O)N1CCN(c2nc(OCC3CCCN3C)nc3c(F)c(-c4nc(N)cc(C)c4C(F)(F)F)c(Cl)cc23)C(C)C1
IC50 (second compound 0.00316 µM): 5.85 µM
IC50 (second compound 0.01 µM): 5.33 µM
IC50 (second compound 0.0316 µM): 5.77 µM
IC50 (second compound 0.1 µM): 5.34 µM
IC50 (second compound 0.316 µM): 6.67 µM
IC50 (second compound 1 µM): 5.12 µM
viability, T/C [1]: 127%
viability, T/C [2]: 120%
viability, T/C [3]: 111%
viability, T/C [4]: 80.8%
viability, T/C [5]: 63.6%
viability, T/C [6]: 40%
viability, T/C [7]: 124%
viability, T/C [8]: 116%
viability, T/C [9]: 103%
viability, T/C [10]: 90.9%
viability, T/C [11]: 68.5%
viability, T/C [12]: 27.7%
viability, T/C [13]: 130%
viability, T/C [14]: 123%
viability, T/C [15]: 112%
viability, T/C [16]: 89.3%
viability, T/C [17]: 71.2%
viability, T/C [18]: 32.6%
viability, T/C [19]: 124%
viability, T/C [20]: 110%
viability, T/C [21]: 118%
viability, T/C [22]: 92.1%
viability, T/C [23]: 61.7%
viability, T/C [24]: 36.8%
viability, T/C [25]: 123%
viability, T/C [26]: 135%
viability, T/C [27]: 114%
viability, T/C [28]: 96.3%
viability, T/C [29]: 70.8%
viability, T/C [30]: 39.1%
viability, T/C [31]: 132%
viability, T/C [32]: 136%
viability, T/C [33]: 111%
viability, T/C [34]: 98.5%
viability, T/C [35]: 57.5%
viability, T/C [36]: 36.7%
